Counter-ions that a name gives are not always drawn. Like-named read-outs stand apart in the source and are kept apart here.
How the values were obtained:
5-HT1A = target: T1, 5-HT1A (Rattus norvegicus, UniProt P19327); test: biochemical; settings: binding; read-out: Receptor Profile (pKi) 5-HT1A (converted)
T1 sequence (P19327 1-422): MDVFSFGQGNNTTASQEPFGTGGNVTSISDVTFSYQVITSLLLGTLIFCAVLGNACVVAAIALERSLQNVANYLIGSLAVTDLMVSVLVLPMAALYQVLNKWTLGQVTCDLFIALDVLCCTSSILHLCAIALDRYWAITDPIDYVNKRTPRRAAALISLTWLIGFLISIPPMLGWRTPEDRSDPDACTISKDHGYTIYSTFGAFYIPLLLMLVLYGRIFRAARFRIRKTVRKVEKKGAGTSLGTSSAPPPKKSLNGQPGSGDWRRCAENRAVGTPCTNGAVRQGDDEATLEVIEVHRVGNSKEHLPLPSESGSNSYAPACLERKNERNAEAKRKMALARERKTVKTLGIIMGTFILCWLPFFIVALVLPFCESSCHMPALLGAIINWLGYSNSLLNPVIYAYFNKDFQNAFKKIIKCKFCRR

D1 = target: T2, D1 (Rattus norvegicus, UniProt P18901); test: Receptor profile, binding studies (D1); settings: read-out: Receptor Profile (pKi) D1 (converted)
T2 construct: from tissue

[1] = test system: mesolimbic dopaminergic pathways; test: Verticalization test using apomorphine in mice; type: in vivo, male CF (Charles River) mice; settings: for ED50: Mus musculus, sc, read-out: Verticalization (Apomorphine) DI50
Experimental: (§1) An activity in these tests appears to reflect blocking of the mesolimbic dopaminergic pathways, which are believed to be hyperactive in schizophrenics, as described by P. C.
The experiment was performed on male CF (Charles River) mice of average weight 25 g. thirty minutes before the start of the test, each mouse was placed in a cylindrical cage (O12 cm 14 cm), with vertical metal bars and a smooth plastic lid, after having received a subcutaneous injection of solvent or of product. […] At T10 (10 minutes) and at T20 (20 minutes), a score was attributed to each animal after observation for approximately one minute:
score 0 (4 feet on the floor);
score 1 (animal raised on hind legs, forefeet on the vertical bars);
score 2 (animal gripping on to the bars with all 4 feet).
The total score of the 2 measurements then represents the verticalization value of the animal, which is used for the statistical analysis.

5-HT2A = target: T3, 5-HT2A (Rattus norvegicus, UniProt P14842); test: Receptor profile, binding studies (5-HT2A); settings: Receptor Profile (pKi) 5-HT2A
T3 construct: from tissue

α1 = test: Receptor profile, binding studies (α1)
5-HT2C = target: T4, 5-HT2C (Sus scrofa, UniProt K7GSR7); test: Receptor profile, binding studies (5-HT2C); settings: Receptor Profile (pKi) 5-HT2C
T4 construct: from tissue
T4 sequence (K7GSR7 1-457): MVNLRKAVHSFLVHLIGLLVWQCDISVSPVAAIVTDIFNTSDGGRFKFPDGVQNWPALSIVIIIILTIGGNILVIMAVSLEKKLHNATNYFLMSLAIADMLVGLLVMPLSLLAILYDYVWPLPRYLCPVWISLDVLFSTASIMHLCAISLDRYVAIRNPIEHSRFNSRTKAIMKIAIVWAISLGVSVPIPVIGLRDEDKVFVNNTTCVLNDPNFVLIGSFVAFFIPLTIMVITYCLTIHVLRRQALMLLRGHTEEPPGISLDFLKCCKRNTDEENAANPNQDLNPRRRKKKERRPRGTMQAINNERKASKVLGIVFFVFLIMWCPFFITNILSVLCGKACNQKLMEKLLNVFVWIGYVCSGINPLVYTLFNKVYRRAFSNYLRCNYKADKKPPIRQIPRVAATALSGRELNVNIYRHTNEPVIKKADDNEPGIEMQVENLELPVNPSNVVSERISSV

D2 = D2 (Rattus norvegicus, UniProt P61169); test: biochemical; settings: binding; read-out: Receptor Profile (pKi) D2 (converted)
[2] = Induction of catalepsy in rats; design: species or system male Wistar rats; settings: rat, in vivo, sc
Text: In order to determine the potential of the compounds of the invention to generate a syndrome of extrapyramidal type, the capacity to induce a catalepsy in rats was examined. This phenomenon is due to an antagonism of the nigrostriatal dopaminergic transmission.
Male Wistar rats (220-240 g) were placed in individual cages and food was witheld the night before the test. The test used to evaluate the cataleptogenic properties of a product consists in placing each of the animal's hind feet on the forefoot located on the same side and in measuring the time in seconds for which the animal kept this "crossed feet" position, up to 30 seconds, as described by P. C. […] Each animal underwent three tests, at intervals of one minute; the average value of the three tests then represents the catalepsy time of the animal, which is used for the statistical analysis. The product to be tested was administered to the animal subcutaneously, 30 minutes before the test.
The effective cataleptogenic dose ED5.sbsb.0 is that which induces catalepsy for an average duration of 15 seconds, that is to say for 50% of the maximum duration of the test (30 seconds).

[3] = test system: mesolimbic dopaminergic pathways; test: Test of the motor activity induced by amphetamine; type: in vivo, male Wistar rats; settings: for ED50: Rattus norvegicus, sc, read-out: Locomotion (Amphetamine) DI50
Experimental: motor activity inhibition induced by amphetamine (which increases the release of catecholamines) according to the procedure described by A. A. Mengens, cited above.
as §1
Male Wistar rats (200-220 g) were placed in transparent polycarbonate individual cages the night before the test. The locomotor activity was recorded using photoelectric cells (Systeme Lablinc, Coulbourn) connected via an interface to a microcomputer. There are two transverse banks of photoelectric cells per cage. The test takes place under artificial light, starting from 1.00 p.m., during daylight hours. The product or solvent was administered to the animal subcutaneously, 30 minutes before the start of the test.

schizophrenia = settings: cited from earlier work
[4] = test system: adrenergic (α1) receptors; settings: cited from earlier work
5-HT1A receptors = settings: unlike haloperidol; cited from earlier work
[5] = mice, s.c. 30 min before, apomorphine 0.75 mg/kg s.c., Inhibitory Dose50, 95% confidence limits
[6] = rats, s.c. 30 min before, D-amphetamine 2.5 mg/kg i.p., 1 hour, Inhibitory Dose50, 95% confidence limits

Sequence of D2 (P61169 whole entry): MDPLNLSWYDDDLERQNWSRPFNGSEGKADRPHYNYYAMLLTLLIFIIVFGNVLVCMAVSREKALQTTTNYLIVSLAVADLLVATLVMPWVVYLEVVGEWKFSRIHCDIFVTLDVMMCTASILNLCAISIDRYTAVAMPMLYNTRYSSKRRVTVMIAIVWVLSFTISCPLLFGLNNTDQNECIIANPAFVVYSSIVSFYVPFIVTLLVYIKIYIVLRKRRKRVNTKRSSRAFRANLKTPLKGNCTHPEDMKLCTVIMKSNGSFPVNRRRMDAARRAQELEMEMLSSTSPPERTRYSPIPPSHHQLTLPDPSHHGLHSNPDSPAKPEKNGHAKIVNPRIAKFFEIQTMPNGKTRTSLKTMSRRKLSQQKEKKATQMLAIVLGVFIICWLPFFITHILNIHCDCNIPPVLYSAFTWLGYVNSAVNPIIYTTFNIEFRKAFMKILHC
T3 sequence (P14842 whole entry): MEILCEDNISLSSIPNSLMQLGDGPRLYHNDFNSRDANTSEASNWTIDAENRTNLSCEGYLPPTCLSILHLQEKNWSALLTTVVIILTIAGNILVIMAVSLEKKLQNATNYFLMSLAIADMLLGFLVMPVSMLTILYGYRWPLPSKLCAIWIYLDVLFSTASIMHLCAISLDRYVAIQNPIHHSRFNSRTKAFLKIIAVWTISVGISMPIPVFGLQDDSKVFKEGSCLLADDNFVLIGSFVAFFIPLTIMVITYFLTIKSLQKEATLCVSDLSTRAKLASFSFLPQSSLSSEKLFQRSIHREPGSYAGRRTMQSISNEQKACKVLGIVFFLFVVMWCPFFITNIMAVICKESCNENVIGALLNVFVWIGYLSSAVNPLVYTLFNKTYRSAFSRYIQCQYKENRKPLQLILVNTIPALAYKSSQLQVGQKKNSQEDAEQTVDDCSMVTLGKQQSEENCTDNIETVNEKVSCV
T2 sequence (P18901 whole entry): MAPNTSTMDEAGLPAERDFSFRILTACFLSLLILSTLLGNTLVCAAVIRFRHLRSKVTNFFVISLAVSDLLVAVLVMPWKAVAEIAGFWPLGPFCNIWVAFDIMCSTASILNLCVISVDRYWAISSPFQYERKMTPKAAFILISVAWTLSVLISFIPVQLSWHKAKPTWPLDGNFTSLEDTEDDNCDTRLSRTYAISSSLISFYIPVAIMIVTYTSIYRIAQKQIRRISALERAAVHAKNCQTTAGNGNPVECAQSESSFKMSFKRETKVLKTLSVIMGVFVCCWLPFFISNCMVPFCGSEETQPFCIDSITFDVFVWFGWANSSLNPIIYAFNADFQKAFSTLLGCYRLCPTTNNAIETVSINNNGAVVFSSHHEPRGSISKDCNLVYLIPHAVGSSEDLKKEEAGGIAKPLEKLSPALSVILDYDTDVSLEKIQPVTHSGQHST

Compound | Ki (5-HT1A) | Ki (D1) | ED50 [1, 5] | Ki (5-HT2A) | Ki (5-HT2C) | Ki (D2) | ED50 at 0.5 h [2] | ED50 [3, 6] | also measured
O=C(CC1CCN(CCOc2cccc3c2OCCO3)C1)c1ccc(F)cc1 (single isomer, unassigned) [Example 5, 5-{2-[3-(4-Fluorobenzoylmethyl)pyrrolidin-1-yl]ethoxy}-1,4-benzodioxane hydrochloride, (+) isomer] | 0.00479 µM | 0.275 µM | 0.26 mg/kg | 0.00331 µM | 0.00933 µM | 0.0468 µM | > 40 mg/kg | 2.8 mg/kg | Receptor Profile (pKi) α1 (α1; listed as ex. 5): 8.19
O=C(CC1CCN(CCOc2cccc3c2OCCO3)C1)c1ccc(F)cc1 (single isomer, unassigned) [Example 6, 5-{2-[3-(4-Fluorobenzoylmethyl)pyrrolidin-1-yl]ethoxy}-1,4-benzodioxane hydrochloride, (-) isomer] | 0.00363 µM | 0.204 µM | – | 0.0024 µM | 0.00661 µM | 0.0537 µM | – | – | Verticalization (Apomorphine) DI50 ([1]; mice, s.c. 30 min before, apomorphine 0.75 mg/kg s.c., Inhibitory Dose50, 95% confidence limits, listed as Ex. 6): 0.25 mg/kg; Receptor Profile (pKi) α1 (α1; listed as ex. 6): 8.93; Locomotion (Amphetamine) DI50 ([3]; rats, s.c. 30 min before, D-amphetamine 2.5 mg/kg i.p., 1 hour, Inhibitory Dose50, 95% confidence limits, listed as Ex. 6): 1.94 mg/kg
CN1CCN(C2=Nc3cc(Cl)ccc3Nc3ccccc32)CC1 [Clozapine, clozapine] | – | – | 2.22 mg/kg | – | – | – | – | 12.8 mg/kg | toxicity in the general treatment of schizophrenic states (schizophrenia; human, in vivo): on account of its toxicity, clozapine cannot be envisaged in the general treatment of schizophrenic states; extrapyramidal syndrome (schizophrenia; schizophrenia): appears not to bring about an extrapyramidal syndrom; affinity for the adrenergic (α1) receptors [4]: relatively high affinity; ED50 at 0.5 h ([2]; rats, s.c. 30 min before, dose inducing catalepsy for an average of 15 seconds (50% of maximum), read-out: Induction of the catalepsy DE50): > 40 mg/kg; affinity for the 5-HT1A receptors (5-HT1A receptors): a certain affinity for the 5-HT1A receptors
O=C(CC1CCN(CCOc2cccc3c2OCCO3)C1)c1ccc(F)cc1 (stereo not shown) [Example 2, 5-{2-[3-(4-Fluorobenzoylmethyl)pyrrolidin-1-yl}-1,4-benzodioxane hydrochloride] | 0.0049 µM | 0.251 µM | 0.28 mg/kg | 0.00398 µM | 0.00794 µM | 0.0437 µM | > 40 mg/kg | 2.17 mg/kg | Receptor Profile (pKi) α1 (α1): 8.61
Cl.Fc1ccc2c(CC3CCN(CCOc4cccc5c4OCCO5)C3)n[nH]c2c1 (stereo not shown) [Example 7, 5-{2-[3-[(6-Fluoro-1H-indazol-3-yl)methyl]pyrrolidin-1-yl]ethoxy}-1,4-benzodioxane hydrochloride] | 0.0017 µM | – | 0.41 mg/kg | 0.0219 µM | 0.0933 µM | 0.0537 µM | – | – | –
Cl.Fc1ccc2c(CC3CCN(CCOc4cccc5c4OCCO5)C3)noc2c1 (stereo not shown) [Example 8, 5-{2-[3-[(6-Fluoro-1,2-benzisoxazol-3-yl)methyl]pyrrolidin-1-yl]ethoxy}-1,4-benzodioxane hydrochloride] | 0.00389 µM | – | ~0.63 mg/kg | 0.0132 µM | 0.0955 µM | 0.257 µM | – | – | –
O=C(CCCN1CCC(O)(c2ccc(Cl)cc2)CC1)c1ccc(F)cc1 [Haloperidol, haloperidol, reference compound] | – | – | – | – | – | – | 0.156 mg/kg | – | ED50 [1]: 0.013 mg/kg; effectiveness for the productive symptoms (such as fabulation and hallucinations) (schizophrenia; schizophrenia): quite good care for the productive symptoms; effectiveness with regard to deficiency symptoms (such as social withdrawal) (schizophrenia; schizophrenia): very poor; extrapyramidal syndrome (schizophrenia; schizophrenia): induce an extrapyramidal syndrome of Parkinson type; ED50 [3]: 0.043 mg/kg
